In patent US20080280879A1, “SUBSTITUTED HETEROCYCLIC DERIVATIVES AND THEIR PHARMACEUTICAL USE AND COMPOSITIONS” (priority 2007, published 2008):
In brackets after ≈: the same amount, converted by molar mass.

How the values were obtained:
Assay type in all cases: cell-based, Staphylococcus aureus
Staph aureus 2811 = experiment: MIC, microtiter broth dilution (CLSI M7-A7), Assay 1, Table 12 column D, no serum; settings: for MIC: Staphylococcus aureus, 2811, Staph aureus 2811, Assay 1, no serum; for MIC, column D: Staph aureus 2811, Assay 1, no serum
Summary of the method: (§1)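 Broth microdilution in microtiter trays per CLSI M7-A7, interpreted per M100-S16; MIC (μg/ml) is the lowest concentration preventing visible growth. Serum condition used Mueller-Hinton Broth with 50% pooled inactivated human serum. Repeated runs reported as geometric mean.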

Staph aureus 1146 [1] = experiment: MIC in Mueller-Hinton Broth with 50% pooled inactivated human serum, Assay 1, Table 12; settings: for MIC: Staphylococcus aureus, 1146, Staph aureus 1146, Assay 1, 50% human serum, read-out: MIC, column C; for MIC, column C: Staph aureus 1146, Assay 1, 50% human serum
Summary of the method: as §1

Staph aureus 2812 = experiment: MIC, microtiter broth dilution (CLSI M7-A7), Assay 1, Table 12 column E, no serum; settings: for MIC: Staphylococcus aureus, 2812, Staph aureus 2812, Assay 1, no serum; for MIC, column E: Staph aureus 2812, Assay 1, no serum
Summary of the method: as §1

Staph aureus 1095 MRSA = experiment: MIC, microtiter broth dilution (CLSI M7-A7), Assay 1, Table 12 column A, no serum; settings: Assay 1, no serum; for MIC: Staphylococcus aureus, MRSA
Summary of the method: as §1

Staph aureus 1146 [2] = experiment: MIC, microtiter broth dilution (CLSI M7-A7), Assay 1, Table 12 column B, no serum; settings: for MIC: Staphylococcus aureus, 1146, Staph aureus 1146, Assay 1, no serum; for MIC, column B: Staph aureus 1146, Assay 1, no serum
Summary of the method: as §1

Row | MIC (Staph aureus 2811) [µg/mL] | MIC (Staph aureus 1146 [1]) [µg/mL] | MIC (Staph aureus 2812) [µg/mL] | MIC (Staph aureus 1095 MRSA) [µg/mL] | MIC (Staph aureus 1146 [2]) [µg/mL] | SMILES | MIC, column A (Staph aureus 1095 MRSA) | MIC, column D (Staph aureus 2811) | MIC, column C (Staph aureus 1146 [1]) [µg/mL] | MIC, column E (Staph aureus 2812) | MIC, column B (Staph aureus 1146 [2])
1 | 0.125 (≈ 0.262 µM) | 2 (≈ 4.2 µM) | ≤ 0.0625 |  | ≤ 0.0625 | COc1ccc2nccc(C(F)CC[C@@H]3CCN(C4CC(c5ccccc5)C4)C[C@@H]3C(=O)O)c2c1 (stereo partly drawn) [Example 133, (3R,4R)-4-(3-fluoro-3-(6-methoxyquinolin-4-yl)propyl)-1-(3-phenylcyclobutyl)piperidine-3-carboxylic acid] | 0.25 µg/mL (≈ 0.525 µM) |  |  |  | 
2 | 4 (≈ 8.2 µM) | 4 (≈ 8.2 µM) | 8 (≈ 16.4 µM) | 8 (≈ 16.4 µM) | 4 (≈ 8.2 µM) | CNC(CC[C@@H]1CCN(C2CC(c3ccccc3)C2)C[C@@H]1C(=O)O)c1ccnc2ccc(OC)cc12 (stereo partly drawn) [Example 136, (3R,4R)-4-[3-(6-Methoxy-quinolin-4-yl)-3-methylamino-propyl]-1-(3-phenyl-cyclobutyl)-piperidine-3-carboxylic acid] |  |  |  |  | 
3 | 0.5 (≈ 1.06 µM) | 0.5 (≈ 1.06 µM) | 2 (≈ 4.22 µM) | 2 (≈ 4.22 µM) | 1 (≈ 2.11 µM) | COc1ccc2nccc(C(N)CC[C@@H]3CCN(C4CC(c5ccccc5)C4)C[C@@H]3C(=O)O)c2c1 (stereo partly drawn) [Example 138, (3R,4R)-4-[3-Amino-3-(6-methoxy-quinolin-4-yl)-propyl]-1-(3-phenyl-cyclobutyl)-piperidine-3-carboxylic acid] |  |  |  |  | 
4 | 16 (≈ 31.9 µM) | 64 (≈ 128 µM) | 16 (≈ 31.9 µM) | 16 (≈ 31.9 µM) | 16 (≈ 31.9 µM) | COc1ccc2nccc(C(CC[C@@H]3CCN(C4CC(c5ccccc5)C4)C[C@@H]3C(=O)O)N(C)C)c2c1 (stereo partly drawn) [Example 140, (3R,4R)-4-[3-(dimethylamino)-3-(6-methoxyquinolin-4-yl)propyl]-1-(3-phenylcyclobutyl)piperidine-3-carboxylic acid] |  |  |  |  | 
5 | 8 (≈ 17.4 µM) | > 64 | 16 (≈ 34.7 µM) | 32 (≈ 69.5 µM) | 16 (≈ 34.7 µM) | O=C(O)[C@H]1CN(C2CC(c3ccccc3)C2)CC[C@H]1CCC(O)c1ccnc2ccc(O)cc12 (stereo partly drawn) [Example 142, (3R,4R)-4-[3-hydroxy-3-(6-hydroxyquinolin-4-yl)propyl]-1-(3-phenylcyclobutyl)piperidine-3-carboxylic acid] |  |  |  |  | 
6 | 0.0625 (≈ 0.115 µM) | 4 (≈ 7.35 µM) | 0.0625 (≈ 0.115 µM) | 0.25 (≈ 0.46 µM) | 0.0625 (≈ 0.115 µM) | COc1ccc2ncc(Cl)c(CCNC3(C(=O)O)CCCN(C4CC(c5c(F)cccc5F)C4)CC3)c2c1 (stereo not shown) [Example 154, 4-{[2-(3-chloro-6-methoxyquinolin-4-yl)ethyl]amino}-1-[3-(2,6-difluorophenyl)cyclobutyl]azepane-4-carboxylic acid] |  |  |  |  | 
7 | 0.25 (≈ 0.475 µM) | 4 (≈ 7.6 µM) | 0.125 (≈ 0.238 µM) | 1 (≈ 1.9 µM) | 0.125 (≈ 0.238 µM) | COc1ccc2ncc(Cl)c(CCNC3(C(=O)O)CCCN(C4CC(c5cccc(F)c5)C4)CC3)c2c1 (stereo not shown) [Example 155, 4-{[2-(3-chloro-6-methoxyquinolin-4-yl)ethyl]amino}-1-[3-(3-fluorophenyl)cyclobutyl] azepane-4-carboxylic acid] |  |  |  |  | 
8 | 0.5 (≈ 0.919 µM) | > 33 | 0.25 (≈ 0.46 µM) | 1 (≈ 1.84 µM) | 0.25 (≈ 0.46 µM) | COc1ccc2ncc(Cl)c(CCNC3(C(=O)O)CCCN(CC4CC4c4cc(F)ccc4F)CC3)c2c1 (stereo not shown) [Example 156, 4-{[2-(3-chloro-6-methoxyquinolin-4-yl)ethyl]amino}-1-{[2-(2,5-difluorophenyl)cyclopropyl]methyl}azepane-4-carboxylic acid] |  |  |  |  | 
9 | 1 (≈ 1.74 µM) | > 33 | 0.5 (≈ 0.868 µM) | 4 (≈ 6.94 µM) | 1 (≈ 1.74 µM) | COc1ccc2ncc(Cl)c(CCNC3(C(=O)O)CCCN(C4CC(c5cccc(C(F)(F)F)c5)C4)CC3)c2c1 (stereo not shown) [Example 157, 4-{[2-(3-chloro-6-methoxyquinolin-4-yl)ethyl]amino}-1-{3-[3-(trifluoromethyl)phenyl]cyclobutyl}azepane-4-carboxylic acid] |  |  |  |  | 
10 | 32 (≈ 64.7 µM) | > 64 | 64 (≈ 129 µM) | 64 (≈ 129 µM) | 64 (≈ 129 µM) | CCc1noc(C2CC(N3CC[C@@H](CCC(O)c4ccnc5ccc(OC)cc45)[C@@H](C(=O)O)C3)C2)n1 (stereo partly drawn) [Example 162, (3R,4R)-1-[3-(3-ethyl-1,2,4-oxadiazol-5-yl)cyclobutyl]-4-[3-hydroxy-3-(6-methoxyquinolin-4-yl)propyl]piperidine-3-carboxylic acid] |  |  |  |  | 

The next lines start with the compound.

Row | SMILES | MIC (Staph aureus 2811) [µg/mL] | MIC (Staph aureus 1146 [1]) [µg/mL] | MIC (Staph aureus 2812) [µg/mL] | MIC (Staph aureus 1095 MRSA) [µg/mL] | MIC (Staph aureus 1146 [2]) [µg/mL] | MIC, column A (Staph aureus 1095 MRSA) | MIC, column D (Staph aureus 2811) | MIC, column C (Staph aureus 1146 [1]) [µg/mL] | MIC, column E (Staph aureus 2812) | MIC, column B (Staph aureus 1146 [2])
11 | COc1ccc2nccc(C(O)CC[C@@H]3CCN(C4CN(C5CCCCC5)C4)C[C@@H]3C(=O)O)c2c1 (stereo partly drawn) [Example 131, (3R,4R)-1-(1-cyclohexylazetidin-3-yl)-4-[3-hydroxy-3-(6-methoxyquinolin-4-yl)propyl]piperidine-3-carboxylic acid] | > 64 | > 64 | > 64 | > 64 | > 64 |  |  |  |  | 
12 | COc1ccc2nccc(C(O)CC[C@@H]3CCN(C4CN(C5CCCC5)C4)C[C@@H]3C(=O)O)c2c1 (stereo partly drawn) [Example 132, (3R,4R)-1-(1-cyclopentylazetidin-3-yl)-4-[3-hydroxy-3-(6-methoxyquinolin-4-yl)propyl]piperidine-3-carboxylic acid] | > 64 | > 64 | > 64 | > 64 | > 64 |  |  |  |  | 
13 | COc1ccc2nccc(C(F)CC[C@@H]3CCN(C4CC(c5ccccc5)C4)C[C@@H]3C(=O)O)c2c1 (stereo partly drawn) [Example 134, (3R,4R)-4-(3-fluoro-3-(6-methoxyquinolin-4-yl)propyl)-1-(3-phenylcyclobutyl)piperidine-3-carboxylic acid] |  |  |  |  |  | <=.0625 μg/ml | <=.0625 μg/ml | 4 (≈ 8.39 µM) | <=.0625 μg/ml | <=.0625 μg/ml
14 | COc1ccc2nccc(C(=O)CC[C@@H]3CCN(C4CC(c5ccccc5)C4)C[C@@H]3C(=O)O)c2c1 (stereo partly drawn) [Example 135, (3R,4R)-4-[3-(6-Methoxy-quinolin-4-yl)-3-oxo-propyl]-1-(3-phenyl-cyclobutyl)-piperidine-3-carboxylic acid] | 0.125 (≈ 0.265 µM) | 8 (≈ 16.9 µM) | 0.25 (≈ 0.529 µM) | 0.25 (≈ 0.529 µM) | 0.25 (≈ 0.529 µM) |  |  |  |  | 
15 | COc1ccc2nccc(C(CC[C@@H]3CCN(C4CC(c5ccccc5)C4)C[C@@H]3C(=O)O)N3CCC3)c2c1 (stereo partly drawn) [Example 137, (3R,4R)-4-[3-Azetidin-1-yl-3-(6-methoxy-quinolin-4-yl)-propyl]-1-(3-phenylcyclobutyl)piperidine-3-carboxylic acid] | 64 (≈ 125 µM) | > 64 | 64 (≈ 125 µM) | > 64 | 64 (≈ 125 µM) |  |  |  |  | 
16 | COc1ccc2nccc(C(CC[C@@H]3CCN(C4CC(c5ccccc5)C4)C[C@@H]3C(=O)O)N3CCOCC3)c2c1 (stereo partly shown) [Example 139] |  |  |  |  |  | 2 µg/mL (≈ 3.68 µM) | 4 µg/mL (≈ 7.36 µM) | 16 (≈ 29.4 µM) | 2 µg/mL (≈ 3.68 µM) | 2 µg/mL (≈ 3.68 µM)
17 | COc1ccc2ncc(Cl)c(C(O)CCC3(C(=O)O)CCN(C4CC(c5ccccc5)C4)CC3)c2c1 (stereo not shown) [Example 141, 4-(3-(3-chloro-6-methoxyquinolin-4-yl)-3-hydroxypropyl)-1-(3-phenylcyclobutyl)piperidine-4-carboxylic acid] | 0.5 (≈ 0.982 µM) | 32 (≈ 62.9 µM) | 1 (≈ 1.96 µM) | 2 (≈ 3.93 µM) | 1 (≈ 1.96 µM) |  |  |  |  | 
18 | O=C(O)[C@H]1CN(C2CC(c3ccccc3)C2)CC[C@H]1CCC(O)c1ccnc2ccc(OC(F)F)cc12 (stereo partly shown) [Example 143] |  |  |  |  |  | 1 µg/mL (≈ 1.96 µM) | 0.5 µg/mL (≈ 0.979 µM) | 2 (≈ 3.92 µM) | 1 µg/mL (≈ 1.96 µM) | 0.5 µg/mL (≈ 0.979 µM)
19 | COc1ccc2nccc(C(O)CC[C@@H]3CCN(C4CC(c5ccccc5)C4)C[C@@H]3C(N)=O)c2c1 (stereo partly shown) [Example 144] |  |  |  |  |  | <=.0625 μg/ml | <=.0625 μg/ml | 0.25 (≈ 0.528 µM) | <=.0625 μg/ml | <=.0625 μg/ml
20 | CNC(=O)[C@H]1CN(C2CC(c3ccccc3)C2)CC[C@H]1CCC(O)c1ccnc2ccc(OC)cc12 (stereo partly drawn) [Example 145, (3R,4R)-4-[3-Hydroxy-3-(6-methoxy-quinolin-4-yl)-propyl]-1-(3-phenyl-cyclobutyl)-piperidine-3-carboxylic acid methylamide] | 0.5 (≈ 1.03 µM) | 4 (≈ 8.2 µM) | 1 (≈ 2.05 µM) | 0.25 (≈ 0.513 µM) | 1 (≈ 2.05 µM) |  |  |  |  | 
21 | COc1ccc2ncc(F)c(C(O)COC3(C(=O)O)CCN(C4CC(c5ccccc5)C4)CC3)c2c1 (stereo not shown) [Example 146, 4-(2-(3-fluoro-6-methoxyquinolin-4-yl)-2-hydroxyethoxy)-1-(3-phenylcyclobutyl)piperidine-4-carboxylic acid] | 32 (≈ 64.7 µM) | > 64 | 32 (≈ 64.7 µM) | 32 (≈ 64.7 µM) | 16 (≈ 32.4 µM) |  |  |  |  | 
22 | COc1ccc2ncc(Cl)c(CCNC3(C(=O)O)CCCN(C4CC(c5cccc(C)c5)C4)CC3)c2c1 (stereo not shown) [Example 153, 4-{[2-(3-chloro-6-methoxyquinolin-4-yl)ethyl]amino}-1-[3-(3-methylphenyl)cyclobutyl]azepane-4-carboxylic acid] | 0.5 (≈ 0.958 µM) | 2 (≈ 3.83 µM) | 0.5 (≈ 0.958 µM) | 4 (≈ 7.66 µM) | 1 (≈ 1.92 µM) |  |  |  |  | 
23 | COc1ccc2nccc(C(O)CC[C@@H]3CCN(C4CC(c5nc(C6CCC6)no5)C4)C[C@@H]3C(=O)O)c2c1 (stereo partly drawn) [Example 163, (3R,4R)-1-[3-(3-cyclobutyl-1,2,4-oxadiazol-5-yl)cyclobutyl]-4-[3-hydroxy-3-(6-methoxyquinolin-4-yl)propyl]piperidine-3-carboxylic acid] | > 64 | > 64 | > 64 | > 64 | 64 (≈ 123 µM) |  |  |  |  | 
